In US6482410B1, “Cytotactin derivatives that stimulate attachment and neurite outgrowth, and methods of making same” (The Scripps Research Institute, priority 1994, dated 2002):
Entries after “also recorded” stand apart in the source; their conditions may differ. No end group written: not given here.

Tests used:
[1] = test system: chicken fibroblast SL29 cells; experiment: Cell attachment inhibition assay, fibroblasts on CT or CT:GST fusion proteins; type: cell-based; details: for inhibition of cell attachment to intact CT: RGD peptides 1 mg/ml, JG22 50 μg/ml, FIG. 2; for effect on cell attachment to CTfg substrate / effect on cell attachment to CTfn3 substrate / effect on cell attachment to CTfn6 substrate: equimolar substrates
Method: In the cell attachment inhibition assay, a single cell suspension was incubated with a potential inhibitor and then allowed to settle for a fixed period of time onto a solid support that has been coated with the different proteins to be tested (Friedlander, et al., J. Cell Biol. 107: 2329-2340 (1988)). After removing the unbound and loosely bound cells by washing, the attachment and morphology of those cells remaining on the dish were analyzed.
In the cell attachment inhibition assays, cells were incubated with soluble RGD peptides and/or a monoclonal antibody prior to incubation with solid support.
The inhibitors tested were the RGD-containing soluble peptides, GRGDSP and GRGDTP and the mAb JG22 (Developmental Studies Hybridoma Bank at Department of Pharmacology and Molecular Sciences, Johns Hopkins University School of Medicine, Baltimore, Md.). JG22 is a mouse hybridoma which binds to many types of chicken cells, including fibroblasts and muscle, and is specific to chicken (Greve, et al., J. Cell. Biochem. 18: 221-229 (1982)). JG22 is known to perturb cell attachment to extracellular matrix proteins and disrupts the function of the β1 integrin.
The cell attachment inhibition assay was performed essentially as described for the cell attachment assay in Example 5.B., but with the following modifications.
The solid support and cells were prepared as described in Example 5.B. Again, the initial assay was performed using only intact CT for the preparation of the solid support. The inhibitors tested, GRGDSP, GRGDTP, and the mAb JG22, were admixed with separate aliquots of the chicken fibroblast SL29 and DRG cells prior to addition to the solid support containing intact CT. The RGD-containing peptides were added at a final concentration of 1 mg/ml. The mAb JG22 was added at a final concentration of 50 μg/ml. A combination of each of the RGD-containing peptides and mAb JG22 were also incubated with the fibroblast and DRG cells. The cells and potential inhibitors were incubated for 10 minutes at room temperature and then added to the solid support. Fibroblast and DRG cells without inhibitors were also added to the solid support.
After incubation at 37° C. in 5% CO2 for 1 hour, the solid supports were washed three times in PBS with gentle swirling to remove unattached cells. The cells attached to the solid support were fixed in 1% (v/v) glutaraldehyde in PBS and viewed by phase contrast microscopy. The attached cells were counted using a 10× objective and with an eyepiece reticle. Cells were counted in four fields per adsorbed protein spot. Each protein was tested in three separate spots. The number of cells bound was expressed as the average of the twelve measurements±the standard deviation.
The cell attachment inhibition assay was repeated as described above but using all of the CT:GST fusion proteins in place of intact CT for the preparation of the solid support as described in Example 1.
Cell attachment assays were performed essentially as follows. The chicken fibroblast cell line SL29 was grown to confluence in DMEM with 10% FCS and penicillin/streptomycin. The cells were passaged the night before the assay and seeded at a density of 1:2. Cells were harvested in calcium, magnesium free Hank's balanced salt solution (CMF-HBSS) with 20 mM Hepes buffer and 5 mM EDTA added. The cells were then washed in attachment buffer (CMF-HBSS, 10 mM Hepes, 1 mM CaCl2, 1 mM MgCl2, 0.1 mM MnCl2, 2% BSA) three times, counted in a hemocytometer, resuspended to a density of 6×10^5 cells/ml. Dorsal root ganglion (DRG) neurons were prepared for attachment assays as described in Example 5, but were washed and resuspended at a density of 6×10^5 cells/ml in attachment buffer. Inhibitors of attachment were added at this time.
To some samples GRGDSP (SEQ ID NO 11) or GRGDTP (SEQ ID NO 12) peptide was added at a concentration of 1 mg/ml. […]

[2] = test system: dorsal root ganglia (DRG) neurons; experiment: Two-dimensional neurite outgrowth assay, DRG, 15 hours; type: cell-based, chicken; details: DRG neurons
Method: Dorsal root ganglia (DRG) cells or forebrain neurons were prepared for the cell attachment assays as follows. DRG from day 6 chicken embryos or forebrains from day 7 chicken embryos were dissected into HBSS. The tissue was pelleted by centrifugation and resuspended in CMF-HBSS and incubated at 37° C. for 10 minutes. The tissue was pelleted again and resuspended in CMF-HBSS containing 0.08% trypsin and allowed to trypsinize for 20 minutes at 37° C. An equal volume of DMEM/F12, 10% FCS, 20 ng/ml nerve growth factor (NGF) (for DRG cells only), 10 μg/ml gentamycin (10% medium) was added, and the tissue was pelleted and resuspended in 2 ml of the 10% medium. The cells were triturated with a fire-polished Pasteur pipette for 15 strokes, and the cells were washed and resuspended in 10 ml of 10% medium. DRG cells were plated in a 10 cm tissue culture dish and incubated for 1 hour at 37° C. in 5% CO2, to allow for attachment of contaminating fibroblasts.
After replating, the cells were harvested, pelleted and washed three times in DMEM/F12, 1% fetal calf serum (FCS), 20 ng/ml NGF (for DRG cells only), 10 μg/ml gentamycin (1% medium), and the number of cells determined using a hemocytometer. The DRG were resuspended to a density of 6×10^5 cells/ml in attachment buffer. The neurons were resuspended to a density of 2×10^4 cells/ml in 1% medium and added to substrates and placed at 37° C., 5% CO2 for 15 hours.
After the growth period, the dishes were gently rinsed with PBS to remove unbound cells, fixed with 1% glutaraldehyde, and viewed by phase contrast microscopy. Ten to forty cells were analyzed for each substrate. Cells were judged as neurite-bearing if the length of the processes was greater than one cell diameter. All cells with neurites were photographed with a 20× objective and total neurite length per neurite-bearing cell was derived from the photographic prints. Percentage of neuronal sprouting was calculated from at least six experiments. Neurite length was calculated from at least three experiments.
This extensive neurite outgrowth after 40 hours made quantitation of the percentage of neurite-bearing cells and neurite length difficult. To analyze quantitatively the effect of CT/TN fusion proteins on DRG neurite outgrowth, DRG cells were therefore plated at low density on CT/TN or CT/TN fragments and analyzed after 15 hours in culture for the percentage of cells that sprouted neurites greater than one cell diameter and for the everage neurite length per neuron. These conditions enhanced the number of isolated cells and discouraged the cell-cell interactions and fasciculation that occurred in the long-term cultures.
The proteins used in the neurite outgrowth assays are the same as those used in the cell attachment assays. […] In addition, poly-L-lysine was adsorbed to the solid support. […] Any cells adhering to the solid support were examined for sprouting and neurite length as defined herein.
Proteins used in the neurite outgrowth assays were prepared as described in Example 5.A.2.
Dorsal root ganglia (DRG) from day 6 chicken embryos were prepared as described in Example 5.A.4. For the neurite outgrowth assays, the DRG were resuspended at a density of 2×10^4 cells/ml in 1% medium, added to solid support, and placed at 37° C. in 5% CO2 for 15 hours. After the attachment and growth period, the dishes were gently rinsed with PBS to remove unbound cells, fixed with 1% (v/v) glutaraldehyde, and viewed by phase contrast microscopy. Ten to thirty cells were analyzed for each adsorbed protein spot. Cells were judged as neurite-bearing if the length of the processes were greater than one cell diameter. All cells with neurites were photographed with a 40× objective and the total neurite length per neurite-bearing cell was derived from the prints. The percent of cells that were sprouting and the average neurite length was derived from six and three independent experiments, respectively. […]

type I collagen = details: Dedhar et al. 1987; Hynes 1992; cited from earlier work

GRGDTP [GRGDTP]
inhibition of SL29 attachment to CT/TN, further analysis ([1]; 1 mg/ml GRGDTP peptide): 33% | inhibition of cell attachment to intact CT [1]: 70% | effect on cell attachment to CTfn5-6 substrate ([1]; inhibitor added before plating): unaffected | effect on cell attachment to CTfg substrate ([1]; inhibitor added before plating): unaffected | effect on cell attachment to CTfn3 substrate ([1]; inhibitor added before plating): completely inhibited; also recorded: selectively inhibited | effect on cell attachment to CTfn6 substrate ([1]; inhibitor added before plating): not effective; also recorded: ineffective | effect on neurite outgrowth on CTfn3 or CTfn6 substrates [2]: inhibited neurite outgrowth | effect on neurite outgrowth on polylysine-coated substrates [2]: not on polylysine-coated substrates | inhibition of cell attachment to collagen I (type I collagen): active inhibitor; also recorded: inhibit binding to collagen I

Gly-Arg-Gly-Asp-Ser-Pro [GRGDSP]
inhibition of cell attachment to intact CT [1]: 73% | effect on cell attachment to CTfg substrate ([1]; inhibitor added before plating): unaffected | effect on cell attachment to CTfn3 substrate ([1]; inhibitor added before plating): completely inhibited | effect on cell attachment to CTfn6 substrate ([1]; inhibitor added before plating): only partially inhibited; also recorded: could inhibit | inhibition of cell attachment to collagen I (type I collagen): far less effective inhibitor; also recorded: had no effect; also recorded: generally has no effect
